From patent publication EP0278686A1, “Pyridopyrimidines methods for their preparation and pharmaceutical formulations thereof” (THE WELLCOME FOUNDATION LIMITED, priority 1987, dated 1988) come the findings set out here.

The structures appear in SMILES notation.

The target in assay [1] is T1, DHFR (Escherichia coli, UniProt P0ABQ4).
T1 construct: DHFR isolated from bacterial and mammalian sources; endogenous in cells
The experiment in a line: In vitro DHFR binding affinities (DHFR inhibition), E. coli enzyme. Format: biochemical. On the procedure:
(§1) The inhibition by the title compound of DHFR isolated from bacterial and mammalian sources was determined using known procedures [B. Roth et al., J. Med. Chem., 24, 933 (1981)].

For assay [2], the target named is T2, DHFR (Rattus norvegicus, UniProt Q920D2).
T2 construct: DHFR isolated from bacterial and mammalian sources; from tissue; host or cells: rat liver
T2 sequence (Q920D2 1-187): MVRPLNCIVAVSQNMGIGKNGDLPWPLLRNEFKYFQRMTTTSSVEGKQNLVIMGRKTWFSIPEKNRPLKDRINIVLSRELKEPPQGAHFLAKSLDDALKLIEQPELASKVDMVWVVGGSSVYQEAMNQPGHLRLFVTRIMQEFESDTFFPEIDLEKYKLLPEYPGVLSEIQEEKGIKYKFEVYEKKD
Description: In vitro DHFR binding affinities (DHFR inhibition), rat liver enzyme. In kind it is biochemical. Here is the method: as §1

In assay [3] the test system is human T-cell line CCRF/CEM. The experiment in a line: In vitro cytotoxicity in cell culture, CCRF/CEM. In kind it is cell-based. The settings on record: read-out: ED50 (the source's name). On the procedure:
(§2) The cytotoxicity of the test compounds was determined in cell culture using the human T-cell line CCRF/CEM (ATCC CCL 119) and also the human breast cancer cell line MCF-7 [H.D. Soule, et al., J.. Nat. Cancer Inst., 51, 1409 (1973)].

Assay [4] has as its system human breast cancer cell line MCF-7. Description: In vitro cytotoxicity in cell culture, MCF-7. Format: cell-based. The settings on record: MCF7, Cell line MCF-7, cytotoxicity, read-out: ED50 (the source's name). On the procedure: as §2

Regarding `COc1ccc(O)c(Cc2cnc3nc(N)nc(N)c3c2C)c1` [Compound A, 2,4-diamino-5-methyl-6-(2-hydroxy-5-methoxybenzyl)pyrido[2,3-d] pyrimidine], the IC50 came out at 0.008 µM in assay [1] and 0.018 µM in assay [2]. For the same compound, the figures for the EC50 in assay [3] and in assay [4] were 0.4 µM and 0.79 µM, respectively.
On to `COc1ccc(O)cc1Cc1cnc2nc(N)nc(N)c2c1C` [Compound B, 2,4-diamino-5-methyl-6-(5-hydroxy-2-methoxybenzyl)pyrido[2,3-d] pyrimidine], for which the half-maximal inhibitory concentration (IC50) in assay [1] turned out to be 0.016 µM; in assay [2], 0.012 µM. Moreover, the EC50 in assay [3] worked out at 0.08 µM; in assay [4] it was 0.75 µM.

For orientation: IC50 means the point on the concentration scale where inhibition reaches its midpoint.
